US11566002B2, “Substituted tetrahydrocyclopenta[C]pyrroles, substituted dihydropyrrolizines, analogues thereof, and methods using same” (priority 2018, dated 2023)

System: HBV rcDNA
Assay: HepDE19 assay with bDNA quantitation of HBV rcDNA
Format: cell-based, hepatitis B virus
Conditions: HepDE19 cells, Tet-free medium, 7 day-incubation, rcDNA measured by Quantigene 2.0 bDNA assay, top concentration 25 μM; read-out: DE-19 bDNA EC50
In short: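 Cytotoxicity (CC50) measured by CellTiter-Glo ATP content in parallel plates, 5,000 cells/well, 4 days. Antiviral EC50 and EC90 derived from HBV rcDNA bDNA levels after 7-day compound exposure (top 25 μM, ½-log 8-point, 0.5% DMSO) of Tet-withdrawn HepDE19 cells at 50,000/well, as % inhibition versus untreated.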

Cn1cc2c(c1C(=O)Nc1ccc(F)c(Cl)c1)CCC2NC(=O)OCC1(C(N)=O)CC(F)(F)C1 (single isomer, unassigned) [Compound 55, (1-Carbamoyl-3,3-difluorocyclobutyl)methyl(1-((3-chloro-4-fluorophenyl)carbamoyl)-2-methyl-2,4,5,6-tetrahydrocyclopenta[c]pyrrol-4-yl)carbamate] and Cn1cc2c(c1C(=O)Nc1ccc(F)c(Cl)c1)CCC2NC(=O)OCCC#N (single isomer, unassigned) [Compound 50, 2-Cyanoethyl (1-((3-chloro-4-fluorophenyl)carbamoyl)-2-methyl-2,4,5,6-tetrahydrocyclopenta[c]pyrrol-4-yl)carbamate] are within 1.5-fold of each other in EC50: 4.4 µM for the first, 3 µM for the second.

First: Cn1ncc(COC(=O)NC2CCc3c2cn(C)c3C(=O)Nc2ccc(F)c(Cl)c2)n1 (single isomer, unassigned) [Compound 128, (2-Methyl-2H-1,2,3-triazol-4-yl)methyl (1-((3-chloro-4-fluorophenyl)carbamoyl)-2-methyl-2,4,5,6-tetrahydrocyclopenta[c]pyrrol-4-yl)carbamate]
Second: Cc1n[nH]nc1COC(=O)NC1CCc2c1cn(C)c2C(=O)Nc1ccc(F)c(Cl)c1 (single isomer, unassigned) [Compound 138, (5-Methyl-2H-1,2,3-triazol-4-yl)methyl (1-((3-chloro-4-fluorophenyl)carbamoyl)-2-methyl-2,4,5,6-tetrahydrocyclopenta[c]pyrrol-4-yl)carbamate]
The EC50 of the first is 2-fold higher: 1.7 µM for the first, 0.86 µM for the second. The second is the more potent here.

Going from Cn1c(Cl)c2c(c1C(=O)Nc1ccc(F)c(Cl)c1)CCCC2NC(=O)OCc1nc[nH]n1 (single isomer, unassigned) [Compound 134, (1H-1,2,4-Triazol-3-yl)methyl (3-chloro-1-((3-chloro-4-fluorophenyl)carbamoyl)-2-methyl-4,5,6,7-tetrahydro-2H-isoindol-4-yl)carbamate] to Cn1c(Cl)c2c(c1C(=O)Nc1ccc(F)c(Cl)c1)CCCC2NC(=O)OCc1cn[nH]n1 (single isomer, unassigned) [Compound 136, (2H-1,2,3-Triazol-4-yl)methyl (3-chloro-1-((3-chloro-4-fluorophenyl)carbamoyl)-2-methyl-4,5,6,7-tetrahydro-2H-isoindol-4-yl)carbamate], the EC50 falls from 1.9 µM to 1.2 µM (1.6-fold).

Going from Cn1cnc(COC(=O)NC2CCc3c2c(Br)n(C)c3C(=O)Nc2ccc(F)c(Cl)c2)n1 (single isomer, unassigned) [Compound 47, (1-Methyl-1H-1,2,4-triazol-3-yl)methyl (3-bromo-1-((3-chloro-4-fluorophenyl)carbamoyl)-2-methyl-2,4,5,6-tetrahydrocyclopenta[c]pyrrol-4-yl)carbamate] to Cc1c2c(c(C(=O)Nc3ccc(F)c(Cl)c3)n1C)CCCC2NC(=O)OCc1ncn(C)n1 (single isomer, unassigned) [Compound 93, (1-Methyl-1H-1,2,4-triazol-3-yl)methyl (1-((3-chloro-4-fluorophenyl)carbamoyl)-2,3-dimethyl-4,5,6,7-tetrahydro-2H-isoindol-4-yl)carbamate], the EC50 falls from 3.1 µM to 0.95 µM (3.3-fold). The second is the more potent here.

Going from Cn1cc2c(c1C(=O)Nc1ccc(F)c(Cl)c1)CCCCC2N (centres unmarked) [Compound 87, 4-Amino-N-(3-chloro-4-fluorophenyl)-2-methyl-2,4,5,6,7,8-hexahydro cyclohepta[c]pyrrole-1-carboxamide] to Cn1cc2c(c1C(=O)Nc1ccc(F)c(Cl)c1)CCC2NC(=O)OCCC#N (single isomer, unassigned) [Compound 49, 2-Cyanoethyl (1-((3-chloro-4-fluorophenyl)carbamoyl)-2-methyl-2,4,5,6-tetrahydrocyclopenta[c]pyrrol-4-yl)carbamate], the EC50 falls from 1.6 µM to 0.06 µM (27-fold). The second is the more potent here.

Compared with Cn1cnc(COC(=O)NC2CCc3c2c(C2CCC2)n(C)c3C(=O)Nc2ccc(F)c(Cl)c2)n1 (single isomer, unassigned) [Compound 96, (1-Methyl-1H-1,2,4-triazol-3-yl)methyl (1-((3-chloro-4-fluorophenyl)carbamoyl)-3-cyclobutyl-2-methyl-2,4,5,6-tetrahydrocyclopenta[c]pyrrol-4-yl)carbamate], Cn1c(Cl)c2c(c1C(=O)Nc1ccc(F)c(Cl)c1)CCCC2NC(=O)OCc1cn[nH]n1 (single isomer, unassigned) [Compound 137, (2H-1,2,3-Triazol-4-yl)methyl (3-chloro-1-((3-chloro-4-fluorophenyl)carbamoyl)-2-methyl-4,5,6,7-tetrahydro-2H-isoindol-4-yl)carbamate] is 2.6-fold lower in EC50: 0.42 µM for the first, 0.16 µM for the second. The second is the more potent here.

Going from CCn1cc2c(c1C(=O)Nc1ccc(F)c(Cl)c1)CCC2NS(=O)(=O)C1CC1 (single isomer, unassigned) [Compound 15, N-(3-Chloro-4-fluorophenyl)-4-(cyclopropanesulfonamido)-2-ethyl-2,4,5,6-tetrahydrocyclopenta[c]pyrrole-1-carboxamide] to Cn1cc2c(c1C(=O)Nc1ccc(F)c(Cl)c1)CCC2NC(=O)OCC#CC1CC1 (single isomer, unassigned) [Compound 114, 3-Cyclopropylprop-2-yn-1-yl (1-((3-chloro-4-fluorophenyl)carbamoyl)-2-methyl-2,4,5,6-tetrahydrocyclopenta[c]pyrrol-4-yl)carbamate], the EC50 falls from ≥ 25 µM to 0.47 µM.

CCn1cc2c(c1C(=O)Nc1ccc(F)c(Cl)c1)CCC2NC(=O)OCc1ccn(C)n1 (single isomer, unassigned) [Compound 27, (1-Methyl-1H-pyrazol-3-yl)methyl (1-((3-chloro-4-fluorophenyl)carbamoyl)-2-ethyl-2,4,5,6-tetrahydrocyclopenta[c]pyrrol-4-yl)carbamate] showed an EC50 of 1.5 µM.

Same assay, conditions: Hepatitis B virus, HepDE19, 168 h, HepDE19 cells, Tet-free medium, 7 day-incubation, rcDNA measured by Quantigene 2.0 bDNA assay, top concentration 25 μM; read-out: DE-19 bDNA EC50

Compared with Cn1cnc(COC(=O)NC2CCc3c2cn(C)c3C(=O)Nc2cccc(F)c2)n1 (single isomer, unassigned) [Compound 66, (1-methyl-1H-1,2,4-triazol-3-yl)methyl (1-((3-fluorophenyl)carbamoyl)-2-methyl-2,4,5,6-tetrahydrocyclopenta[c]pyrrol-4-yl)carbamate], Cn1cnc(COC(=O)NC2CCc3c2cn(C)c3C(=O)Nc2ccc(F)c(F)c2)n1 (single isomer, unassigned) [Compound 64, (1-methyl-1H-1,2,4-triazol-3-yl)methyl (1-((3,4-difluorophenyl)carbamoyl)-2-methyl-2,4,5,6-tetrahydrocyclopenta[c]pyrrol-4-yl)carbamate] is 2.2-fold lower in EC50: 0.9 µM for the first, 0.41 µM for the second. The second is the more potent here.

First: Cn1cc2c(c1C(=O)Nc1ccc(F)c(Cl)c1)CCCC2NC(=O)C1CC1 (single isomer, unassigned) [Compound 76, N-(3-chloro-4-fluorophenyl)-4-(cyclopropanecarboxamido)-2-methyl-4,5,6,7-tetrahydro-2H-isoindole-1-carboxamide]
Second: Cn1cc2c(c1C(=O)Nc1ccc(F)c(Cl)c1)CCCCC2N (centres unmarked) [Compound 80, 4-Amino-N-(3-chloro-4-fluorophenyl)-2-methyl-2,4,5,6,7,8-hexahydro cyclohepta[c]pyrrole-1-carboxamide]
The EC50 of the first is 1.9-fold lower: 1 µM for the first, 1.85 µM for the second.

Going from Cc1cc(NC(=O)c2c3c(cn2C)C(NC(=O)OCc2ncn(C)n2)CC3)ccc1F (single isomer, unassigned) [Compound 62, (1-methyl-1H-1,2,4-triazol-3-yl)methyl (1-((4-fluoro-3-methylphenyl)carbamoyl)-2-methyl-2,4,5,6-tetrahydrocyclopenta[c]pyrrol-4-yl)carbamate] to Cn1cnc(COC(=O)NC2CCc3c2cn(C)c3C(=O)Nc2ccc(F)c(C(F)(F)F)c2)n1 (single isomer, unassigned) [Compound 69, (1-Methyl-1H-1,2,4-triazol-3-yl)methyl (1-((4-fluoro-3-(trifluoromethyl)phenyl)carbamoyl)-2-methyl-2,4,5,6-tetrahydrocyclopenta[c]pyrrol-4-yl)carbamate], the EC50 rises from 0.09 µM to 0.28 µM (3.1-fold).

Work on Cn1cc2c(c1C(=O)Nc1ccc(F)c(Cl)c1)CCCC2=O [Compound 45, N-(3-chloro-4-fluorophenyl)-2-methyl-4-oxo-4,5,6,7-tetrahydro-2H-isoindole-1-carboxamide] yielded an EC50 of 0.07 µM.

Same assay, conditions: read-out: DE-19 bDNA EC50; HepDE19 cells, Tet-free medium, 7 day-incubation, rcDNA measured by Quantigene 2.0 bDNA assay, top concentration 25 μM

CC#CCOC(=O)NC1CCc2c1cn(C)c2C(=O)Nc1ccc(F)c(Cl)c1 (single isomer, unassigned) [Compound 110, But-2-yn-1-yl (1-((3-chloro-4-fluorophenyl)carbamoyl)-2-methyl-2,4,5,6-tetrahydrocyclopenta[c]pyrrol-4-yl)carbamate] and Cn1cc2c(c1C(=O)Nc1ccc(F)c(Cl)c1)CCC2NC(=O)OCc1nn[nH]n1 (single isomer, unassigned) [Compound 149, (2H-Tetrazol-5-yl)methyl(1-((3-chloro-4-fluorophenyl)carbamoyl)-2-methyl-2,4,5,6-tetrahydrocyclopenta[c]pyrrol-4-yl)carbamate] are within 1.5-fold of each other in EC50: 1.5 µM for the first, 1.1 µM for the second.

First: CC#CCOC(=O)NC1CCc2c1cn(C)c2C(=O)Nc1ccc(F)c(Cl)c1 (single isomer, unassigned) [Compound 111, But-2-yn-1-yl (1-((3-chloro-4-fluorophenyl)carbamoyl)-2-methyl-2,4,5,6-tetrahydrocyclopenta[c]pyrrol-4-yl)carbamate]
Second: CCc1n[nH]nc1COC(=O)NC1CCc2c1cn(C)c2C(=O)Nc1ccc(F)c(Cl)c1 (single isomer, unassigned) [Compound 141, (5-Ethyl-2H-1,2,3-triazol-4-yl)methyl(1-((3-chloro-4-fluorophenyl)carbamoyl)-2-methyl-2,4,5,6-tetrahydrocyclopenta[c]pyrrol-4-yl)carbamate]
The EC50 of the first is 20-fold lower: 0.06 µM for the first, 1.2 µM for the second.
